Laboratory results from patent US20250339569A1, “CARBONIC ANHYDRASE IX LIGANDS” (priority 2021, published 2025).
Where two headings read alike, the source gives them in different places.

Columns and labels:
[1] = Biodistribution study (SPECT/CT) in SK-RC-52 tumor-bearing mice with or without gelofusine; format: in vivo, NMRI nude mice; settings: female, NMRI nude, mouse, in vivo, iv, total radioactivity, peak tumor uptake, typical (conclusion)
Procedure: The effect on tumor uptake of prior injection of gelofusine for kidney protection was investigated in mice bearing the SK-RC-52 tumor. Biodistribution was evaluated using in vivo SPECT/CT imaging. Prior to the in vivo study the compounds (ligands) were initially radiolabeled with In-111 and the stability of radiolabeled compounds was evaluated in buffer at three different timepoints.
The study was performed in female NMRI nude mice (approximately 6 weeks of age) from Janvier Labs, France, housed up to 5 mice per cage.
The column was washed with 2 mL water, and then the final product was eluted from the column in EtOH solution (50%) • The sample was formulated in PBS to the final concentration of 150 MBq/mL and 5 nmol/mL.
SK-RC-52 cells were cultured in RPMI 1640 with GlutaMax-I (Thermo Fisher Scientific #61870044) supplemented with 10% fetal bovine serum+1% penicillin/streptomycin, harvested, washed twice in RPMI 1640 and resuspended at 2×10^7 cells/mL in RPMI 1640. HT-29 cells were cultured in McCoy's 5a Medium Modified (Sigma #M9309). For inoculation of HT-29 cells, cells were harvested, washed twice in PBS and resuspended at 5×10^7 cells/mL in PBS. Cells were kept on ice until inoculation.
Animals were anaesthetized (isoflurane, 2-4% in ambient air supplemented with 100% 02) prior to tumor inoculation. The tumor cells (100 μL suspension of either SK-RC-52 cells (2×10^6 cells/animal) or HT-29 cells (5×10^6 cells/animal)) were subcutaneously inoculated in the right flank using a 1-mL syringe equipped with a 27 G needle. Tumor growth and animal weight were measured twice per week. Tumor size was measured by caliper and the volume was estimated using the following formula: 0.52×(length×width^2). When tumor sizes reached 150-250 mm^3, animals were randomized into groups (n=3) of similar average tumor volume and body weight.
Animals were injected intravenously with In-111-labeled compounds (single bolus, 22.3-31.2 MBq, ˜1 nmol ligand, injection volume: 100 μL) in the lateral tail vein using a 29 G syringe.
CT was performed with helical scan, 300 ms exposure, reconstruction resolution of 250 μm. SPECT was performed with multi-pinhole scan and a 30 s frame time. For the quantification of the radioactivity uptake, regions of interests (ROIs) were drawn over the tumor, kidney, liver, and heart (estimate of blood) identified on the images. Uptake was expressed as percent of injected dose per gram tissue (% ID/g).

[2] = biological target: T1, mouse CAIX (Mus musculus, UniProt Q8VHB5); assay: Radioligand saturation binding on CHO-msCAIX; settings: CHO-msCAIX, single experiment
T1 construct: host or cells: CHO-VGT / CHO cells
Procedure: (§1) After attainment of equilibrium, the cells were harvested, and the bound fraction of the compounds was measured. The resulting saturation binding data were analyzed using Graph Pad Prism 8.3.
(§2) CHO cells transfected with human, dog, and mouse CAIX (CHO-huCA9 T04J-1/20 K1, CHO-dogCA9 T05J-9/20 K4, CHO-murCA9 T05J-3/20 K4) were obtained from InSCREENex (Germany).
(§3) A molar excess of 3BP-3565 was used as a blocking peptide to assess non-specific binding in autoradiographic studies. 3BP-3565 binds with a similar affinity to CAIX and blocks binding sites of test compounds. For the blocking solution, a 10 mM stock solution of 3BP-3565 was prepared by dissolution in DMSO.
(§4) CHO cells were maintained in Ham's medium supplemented with 10% fetal bovine serum, 2 mM L-glutamine, 100 U/mL Penicillin and 0.1 mg/mL streptomycin under standard cell culture conditions. The cells were grown in uncoated cell culture flasks (150 cm^2, Biochrom) to subconfluence and then split 1:2-1:3. Approximately 24 hours before the assay, cells were detached by incubation with Accutase and carefully tapping the flasks. Detached cells were resuspended in medium and collected by centrifugation (300 g, 5 min, RT). Cell pellets were resuspended in cell culture medium and counted using a particle counter (CASY Model TT, Scharfe Systems, Germany). Cell concentrations were adjusted to 3×10^5 mL^−1, and 1.000 μL per well of the suspension were dispensed into poly-D-lysine-coated flat-clear-bottom 24 well plates.
(§5) Compound radiolabeling was performed as follows. […] Then, 25 mg/mL methionine in 1 M sodium acetate buffer pH 5 was added at a final concentration of 0.1 M sodium acetate. Subsequently, the mixture was heated to 80° C. for 25 min, followed by cooling for 5 minutes. Finally, 20 μL of 200 mg/mL ascorbic acid solution, 2.5 μL of 5 mg/mL DTPA and 2.5 μL of 5% TWEEN-20 per 100 μL reaction mixture were added, resulting in the concentrated study solution. For quality control, an aliquot of the labeling solution was diluted 1:40 with 0.1% TWEEN-20 in 0.1 M sodium acetate buffer pH 5. Five microliters of the diluted labeling solution were injected onto a Poroshell SB-C18 2.1×50 mm, 2.7 μm column. HPLC analysis was performed as follows: Gradient A: H2O, 0.1% TFA, Gradient B: Acetonitrile (MeCN), gradient from 5% B to 70% B within 15 min, flow rate of 0.5 mL/min; detector: NaI, DAD 215 nm. The peak eluting with the dead volume represents free radionuclide, the peak eluting with the ligand-specific retention time as determined with a non-labeled sample represents the radiolabeled compound.
The radioligand saturation binding on CHO-msCAIX was determined as follows. […] Their associated radioactivity was counted using a gamma counter and normalized to the measured protein concentration of each well. […]

[3] = dog, in vivo
[4] = biological target: human CAIX (Homo sapiens, UniProt Q16790); assay: Radioligand saturation binding and equilibration on CHO-huCAIX; design: host or cells: CHO-VGT / CHO cells
Procedure: as §1, §2, §3, §4, §5
The assessment of the time needed until attainment of equilibration on CHO-huCAIX and CHO-dgCAIX was performed as follows. The 10 mM 3BP-3565 stock solution was diluted with assay medium (Ham's medium without additives) to prepare an 8-μM blocking working solution. The radiolabeling mixtures were diluted with assay medium to prepare 160 nM radioligand working solutions. Subsequently, 1.6 and 3.2 nM radioligand dilutions were prepared by diluting the radioligand working solutions 1:100 and 1:50, respectively, with assay medium. Approximately 24 hours after re-seeding (3×10^5 mL^−1 cells per well), the medium was aspirated, and the cells were washed once with assay medium (700 μL). To determine total binding, 700 μL of binding medium and 100 μL of the radioligand dilutions were added to the wells in triplicates.
To determine non-specific binding, 600 μL of binding medium, 100 μL of the […] 3BP-3565 blocking solution and 100 μL of the radioligand dilutions were added to the wells in triplicates. The plates were incubated for 1 h, 3 h, 6 h, and 8 h at 37° C. under standard cell culture conditions (5% CO2). At the end of the incubation time, the plates were placed on ice while aspirating the radioligand solutions. Subsequently, the cells were washed with ice-cold PBS (0.5 mL, 1 mL, 1 mL). […]

[5] = Plasma stability assay, mouse plasma; settings: mouse plasma, 37°C, 24 h
[6] = Plasma stability assay, human plasma; settings: 37°C
[7] = tested on: SK-RC-52 (ccRCC) human cancer cell line xenograft; assay: In vivo efficacy, biodistribution and tolerability of 225Ac-DPI-4452 in SK-RC-52 xenograft mouse model; design: species or system NMRI nude mice; settings: SK-RC-52 model
[8] = as above; design: species or system NMRI nude mice; settings: female, NMRI nude, mouse, iv, total radioactivity, SK-RC-52 model, 15 kBq, 4 hours after dosing
[9] = In vivo efficacy, biodistribution and tolerability of 225Ac-DPI-4452 in HT-29 xenograft mouse model; design: species or system NMRI nude mice; settings: female, NMRI nude, mouse, iv, total radioactivity, HT-29 model, 15 kBq, 4 hours after dosing
[10] = tested on: HT-29 (CRC) human cancer cell line xenograft; assay: as above; design: species or system NMRI nude mice; settings: HT-29 model
[11] = colon, small intestine and stomach
[12] = kidney, read-out: kidney uptake

T1 sequence (Q8VHB5 32-437): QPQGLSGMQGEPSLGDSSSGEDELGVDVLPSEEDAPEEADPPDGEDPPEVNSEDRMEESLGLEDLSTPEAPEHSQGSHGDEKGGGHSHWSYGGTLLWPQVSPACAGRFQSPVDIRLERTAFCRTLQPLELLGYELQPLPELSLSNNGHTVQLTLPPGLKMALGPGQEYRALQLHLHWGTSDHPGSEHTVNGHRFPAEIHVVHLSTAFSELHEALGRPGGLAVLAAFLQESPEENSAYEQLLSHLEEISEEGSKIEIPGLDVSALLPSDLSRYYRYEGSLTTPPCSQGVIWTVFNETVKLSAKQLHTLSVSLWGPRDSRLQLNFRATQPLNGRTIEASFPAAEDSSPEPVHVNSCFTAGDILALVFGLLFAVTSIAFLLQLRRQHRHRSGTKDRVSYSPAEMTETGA

Structure (SMILES): CC(C)C[C@@H]1NC(=O)[C@H](Cc2ccc(NC(=O)CCS(N)(=O)=O)cc2)NC(=O)[C@H](CC(=O)O)NC(=O)[C@H]2CCCN2C(=O)[C@H](CCC(=O)O)NC(=O)[C@@H](NC(=O)[C@H](CCC(N)=O)NC(=O)CN2CCN(CC(=O)O)CCN(CC(=O)O)CCN(CC(=O)O)CC2)CSCc2cccc(c2)CSC[C@@H](C(N)=O)NC(=O)[C@H](CO)NC(=O)[C@H](Cc2c[nH]c3ccccc23)NC(=O)[C@H]([C@@H](C)O)NC1=O [[^111In]In-DPI-4501, metal not drawn]
- tissue uptake [1]: 7 %ID/g
- Mean pKd ± SD [2]: 7.9
- Kd ([2]; read-out: pKd (converted)): 12.6 nM
- half-life [3]: 68.9 min
- half-life ([3]; iv): 5.88 min
- koff ([4]; CHO-huCAIX): 0.00012 s⁻¹
- Kd ([4]; CHO-huCAIX, first independent experiment, read-out: pKd (converted)): 0.158 nM
- Kd ([4]; CHO-huCAIX, read-out: Mean pKd ± SD (converted)): 0.251 nM
- Kd ([4]; CHO-huCAIX, second independent experiment, read-out: pKd (converted)): 0.398 nM
- Kd ([4]; human CAIX expressed in CHO cells, 8 h at 37°C, read-out: pKd (converted)): ≤ 1 nM

Structure (SMILES): CC(C)C[C@@H]1NC(=O)[C@H](Cc2cccc(NC(=O)CCCS(N)(=O)=O)c2)NC(=O)[C@H](CC(=O)O)NC(=O)[C@H]2CCCN2C(=O)[C@H](CCC(=O)O)NC(=O)[C@@H](NC(=O)[C@H](CCC(N)=O)NC(=O)CN2CCN(C(=O)CN3CCN(CC(=O)O)CCN(CC(=O)O)CCN(CC(=O)O)CC3)CC2)CSCc2cccc(c2)CSC[C@@H](C(N)=O)NC(=O)[C@H](CO)NC(=O)[C@H](Cc2c[nH]c3ccccc23)NC(=O)[C@H]([C@@H](C)O)NC1=O (natLu complex, metal not drawn) [3BP-4555]
- % intact compound remaining (incubation time) [5]: >95%
- % intact compound remaining after 24 h incubation [6]: >95%

Structure (SMILES): CC(C)C[C@@H]1NC(=O)[C@H](Cc2cccc(NC(=O)CCCS(N)(=O)=O)c2)NC(=O)[C@H](CC(=O)O)NC(=O)[C@H]2CCCN2C(=O)[C@H](CCC(=O)O)NC(=O)[C@@H](NC(=O)[C@H](CCC(N)=O)NC(=O)CN2CCN(C(=O)CN3CCN(CC(=O)O)CCN(CC(=O)O)CCN(CC(=O)O)CC3)CC2)CSCc2cccc(c2)CSC[C@@H](C(N)=O)NC(=O)[C@H](CO)NC(=O)[C@H](Cc2c[nH]c3ccccc23)NC(=O)[C@H]([C@@H](C)O)NC1=O [^225Ac-DPI-4452, metal not drawn]
- creatinine values versus vehicle ([7]; 135 kBq, day 14): slightly elevated
- tolerability of treatment ([7]; single 15, 45 or 135 kBq i.v.): well tolerated
- tissue uptake at 4 h ([8]; SK-RC-52 tumor, ex vivo gamma counter, read-out: tumor uptake): 39.1 ± 1.6 %ID/g
- tissue uptake at 4 h [8, 11]: < 1.1 %ID/g
- tissue uptake at 4 h [8, 12]: 4.9 ± 0.2 %ID/g
- tissue uptake at 4 h ([9]; HT-29 tumor, ex vivo gamma counter, read-out: tumor uptake): 11.3 ± 1.3 %ID/g
- tissue uptake at 4 h [9, 11]: < 1.1 %ID/g
- tissue uptake at 4 h [9, 12]: 7.9 ± 1.3 %ID/g
- creatinine values versus vehicle ([10]; 135 kBq, day 14): slightly elevated
- tolerability of treatment ([10]; single 15, 45 or 135 kBq i.v.): well tolerated
